Assay results published in US20120121591A1 (priority 2009, published 2012).
Where two headings read alike, the source gives them in different places.

What was measured:
[1] = test system: IFN-g secretion from T cells in human whole blood; type: cell-based
[2] = test system: IL-2 secretion from T cells in human whole blood; type: cell-based
[3] = read-out: WB (IFNg) IC5- (nM, Avg)
[4] = read-out: WB (IFNg) IC50 (nM, Avg)

Row | Compound | IC50 [1, 3] | IC50 [1, 4] | also measured
1 | CC[C@H](C)[C@@H]1NC(=O)[C@@H](NC(=O)[C@H](CO)NC(=O)[C@@H](N)CCCNC(=N)N)CSSC[C@@H](C(=O)O)NC(=O)[C@H]([C@@H](C)O)NC(=O)CNC(=O)[C@@H]2CSSC[C@@H]3NC(=O)[C@H](CCC(N)=O)NC(=O)[C@H](Cc4ccccc4)NC(=O)[C@H](C)NC(=O)[C@H]([C@@H](C)O)NC(=O)[C@H](CSSC[C@H](NC(=O)[C@H](Cc4ccccc4)NC(=O)[C@H](CO)NC(=O)[C@H](CC(C)C)NC(=O)[C@H](CCCNC(=N)N)NC(=O)[C@H](Cc4ccc(O)cc4)NC(=O)[C@H](CCC(=O)O)NC(=O)[C@H](CCSC)NC(=O)[C@H](CO)NC(=O)[C@H](Cc4c[nH]cn4)NC(=O)[C@H](CCCCN)NC3=O)C(=O)N[C@@H](CCCNC(=N)N)C(=O)N[C@@H](CCCCN)C(=O)N[C@@H]([C@@H](C)O)C(=O)N2)NC(=O)[C@H](CCCNC(=N)N)NC(=O)[C@H](CO)NC(=O)[C@H](CCCCN)NC(=O)[C@@H]2CCCN2C(=O)[C@H]([C@@H](C)CC)NC(=O)[C@H]([C@@H](C)O)NC(=O)[C@H](CC(=O)O)NC1=O [[Glu22]ShK] | 100 nM |  | 
2 | CC[C@H](C)[C@@H]1NC(=O)[C@@H](NC(=O)[C@H](CO)NC(=O)[C@@H](N)CCCNC(=N)N)CSSC[C@@H](C(=O)O)NC(=O)[C@H]([C@@H](C)O)NC(=O)CNC(=O)[C@@H]2CSSC[C@@H]3NC(=O)[C@H](CCC(N)=O)NC(=O)[C@H](Cc4ccccc4)NC(=O)[C@H](C)NC(=O)[C@H]([C@@H](C)O)NC(=O)[C@H](CSSC[C@H](NC(=O)[C@H](Cc4ccccc4)NC(=O)[C@H](CO)NC(=O)[C@H](CC(C)C)NC(=O)[C@H](CCCNC(=N)N)NC(=O)[C@H](Cc4ccc(O)cc4)NC(=O)[C@H](CCCCN)NC(=O)[C@H](CCSC)NC(=O)[C@H](CO)NC(=O)[C@H](Cc4c[nH]cn4)NC(=O)[C@H](CCCCN)NC3=O)C(=O)N[C@@H](CCCNC(=N)N)C(=O)N[C@@H](CCCCN)C(=O)N[C@@H]([C@@H](C)O)C(=O)N2)NC(=O)[C@H](CCCCN)NC(=O)[C@H](CO)NC(=O)[C@H](CCCCN)NC(=O)[C@@H]2CCCN2C(=O)[C@H]([C@@H](C)CC)NC(=O)[C@H]([C@@H](C)O)NC(=O)[C@H](CC(=O)O)NC1=O [[Lys11]ShK] |  |  | IC50 ([2]; read-out: WB (IL-2) IC50 (nM, Avg)): 0.095 nM
3 | [1-Nal14]ShK (RSCIDTIPKSRCTXFQCKHSMKYRLSFCRKTCGTC; non-natural residues) |  | 0.11 nM | 
4 | CC[C@H](C)[C@@H]1NC(=O)[C@@H](NC(=O)[C@H](CO)NC(=O)[C@@H](N)CCCNC(=N)N)CSSC[C@@H](C(=O)O)NC(=O)[C@H]([C@@H](C)O)NC(=O)[C@H](Cc2cccc3ccccc23)NC(=O)[C@@H]2CSSC[C@@H]3NC(=O)[C@H](CCC(N)=O)NC(=O)[C@H](Cc4ccccc4)NC(=O)[C@H](C)NC(=O)[C@H]([C@@H](C)O)NC(=O)[C@H](CSSC[C@H](NC(=O)[C@H](Cc4ccccc4)NC(=O)[C@H](CO)NC(=O)[C@H](CC(C)C)NC(=O)[C@H](CCCNC(=N)N)NC(=O)[C@H](Cc4ccc(O)cc4)NC(=O)[C@H](CCCCN)NC(=O)[C@H](CCSC)NC(=O)[C@H](CO)NC(=O)[C@H](Cc4c[nH]cn4)NC(=O)[C@H](CCCCN)NC3=O)C(=O)N[C@@H](CCCNC(=N)N)C(=O)N[C@@H](CCCCN)C(=O)N[C@@H]([C@@H](C)O)C(=O)N2)NC(=O)[C@H](CCCNC(=N)N)NC(=O)[C@H](CO)NC(=O)[C@H](CCCCN)NC(=O)[C@@H]2CCCN2C(=O)[C@H]([C@@H](C)CC)NC(=O)[C@H]([C@@H](C)O)NC(=O)[C@H](CC(=O)O)NC1=O [[1-Nal33]ShK] |  | 1.43 nM | 
5 | CC[C@H](C)[C@@H]1NC(=O)[C@@H](NC(=O)[C@H](CO)NC(=O)[C@@H](N)CCCNC(=N)N)CSSC[C@@H](C(N)=O)NC(=O)[C@H]([C@@H](C)O)NC(=O)CNC(=O)[C@@H]2CSSC[C@@H]3NC(=O)[C@H](CCCCN)NC(=O)[C@H](Cc4ccccc4)NC(=O)[C@H](C)NC(=O)[C@H]([C@@H](C)O)NC(=O)[C@H](CSSC[C@H](NC(=O)[C@H](Cc4ccccc4)NC(=O)[C@H](CO)NC(=O)[C@H](CC(C)C)NC(=O)[C@H](CCCNC(=N)N)NC(=O)[C@H](Cc4ccc(O)cc4)NC(=O)[C@H](CCCCN)NC(=O)[C@H](CCSC)NC(=O)[C@H](CO)NC(=O)[C@H](Cc4c[nH]cn4)NC(=O)[C@H](CCCCN)NC3=O)C(=O)N[C@@H](CCCNC(=N)N)C(=O)N[C@@H](CCCCN)C(=O)N[C@@H]([C@@H](C)O)C(=O)N2)NC(=O)[C@H](CCCNC(=N)N)NC(=O)[C@H](CO)NC(=O)[C@H](CCCCN)NC(=O)[C@@H]2CCCN2C(=O)[C@H]([C@@H](C)CC)NC(=O)[C@H]([C@@H](C)O)NC(=O)[C@H](CC(=O)O)NC1=O [[Lys16]ShK-amide] |  |  | IC50 ([2]; read-out: WB (IL-2) IC50): 0.1 nM
6 | CC[C@H](C)[C@@H]1NC(=O)[C@@H](NC(=O)[C@H](CO)NC(=O)[C@@H](N)CCCNC(=N)N)CSSC[C@@H](C(=O)O)NC(=O)[C@H]([C@@H](C)O)NC(=O)CNC(=O)[C@@H]2CSSC[C@@H]3NC(=O)[C@H](CCC(N)=O)NC(=O)[C@H](Cc4ccccc4)NC(=O)[C@H](C)NC(=O)[C@H]([C@@H](C)O)NC(=O)[C@H](CSSC[C@H](NC(=O)[C@H](Cc4ccccc4)NC(=O)[C@H](CO)NC(=O)[C@H](CC(C)C)NC(=O)[C@H](CCC(=O)O)NC(=O)[C@H](Cc4ccc(O)cc4)NC(=O)[C@H](CCCCN)NC(=O)[C@H](CCSC)NC(=O)[C@H](CO)NC(=O)[C@H](Cc4c[nH]cn4)NC(=O)[C@H](CCCCN)NC3=O)C(=O)N[C@@H](CCCNC(=N)N)C(=O)N[C@@H](CCCCN)C(=O)N[C@@H]([C@@H](C)O)C(=O)N2)NC(=O)[C@H](CCCNC(=N)N)NC(=O)[C@H](CO)NC(=O)[C@H](CCCCN)NC(=O)[C@@H]2CCCN2C(=O)[C@H]([C@@H](C)CC)NC(=O)[C@H]([C@@H](C)O)NC(=O)[C@H](CC(=O)O)NC1=O [[Glu24]ShK] | 4.07 nM |  | 
7 | CC[C@H](C)[C@@H]1NC(=O)[C@@H](NC(=O)[C@H](CO)NC(=O)[C@@H](N)CCCNC(=N)N)CSSC[C@@H](C(=O)O)NC(=O)[C@H]([C@@H](C)O)NC(=O)CNC(=O)[C@@H]2CSSC[C@@H]3NC(=O)[C@H](CCC(N)=O)NC(=O)[C@H](Cc4ccccc4)NC(=O)[C@H](C)NC(=O)[C@H]([C@@H](C)O)NC(=O)[C@H](CSSC[C@H](NC(=O)[C@H](Cc4ccccc4)NC(=O)[C@H](CO)NC(=O)[C@H](CC(C)C)NC(=O)[C@H](CCCNC(=N)N)NC(=O)[C@H](Cc4ccc(O)cc4)NC(=O)[C@H](CCCCN)NC(=O)[C@H](CCSC)NC(=O)[C@H](CO)NC(=O)[C@H](Cc4c[nH]cn4)NC(=O)[C@H](CCCCN)NC3=O)C(=O)N[C@@H](CCCNC(=N)N)C(=O)N[C@@H](CCCCN)C(=O)N[C@@H]([C@@H](C)O)C(=O)N2)NC(=O)[C@H](CCCNC(=N)N)NC(=O)[C@H](CO)NC(=O)[C@H](CCCCN)NC(=O)[C@H](CCCCN)NC(=O)[C@H]([C@@H](C)CC)NC(=O)[C@H]([C@@H](C)O)NC(=O)[C@H](CC(=O)O)NC1=O [[Lys8]ShK] |  | 0.974 nM | 
8 | CC[C@H](C)[C@@H]1NC(=O)[C@@H](NC(=O)[C@H](CO)NC(=O)[C@@H](N)CCCNC(=N)N)CSSC[C@@H](C(=O)O)NC(=O)[C@H]([C@@H](C)O)NC(=O)CNC(=O)[C@@H]2CSSC[C@@H]3NC(=O)[C@H](CCC(N)=O)NC(=O)[C@H](Cc4ccccc4)NC(=O)[C@H](C)NC(=O)[C@H]([C@@H](C)O)NC(=O)[C@H](CSSC[C@H](NC(=O)[C@H](Cc4ccccc4)NC(=O)[C@H](CO)NC(=O)[C@H](CC(C)C)NC(=O)[C@H](CCCNC(=N)N)NC(=O)[C@H](Cc4ccc(O)cc4)NC(=O)[C@H](CCCCN)NC(=O)[C@H](CCSC)NC(=O)[C@H](CO)NC(=O)[C@H](CCC(=O)O)NC(=O)[C@H](CCCCN)NC3=O)C(=O)N[C@@H](CCCNC(=N)N)C(=O)N[C@@H](CCCCN)C(=O)N[C@@H]([C@@H](C)O)C(=O)N2)NC(=O)[C@H](CCCNC(=N)N)NC(=O)[C@H](CO)NC(=O)[C@H](CCCCN)NC(=O)[C@@H]2CCCN2C(=O)[C@H]([C@@H](C)CC)NC(=O)[C@H]([C@@H](C)O)NC(=O)[C@H](CC(=O)O)NC1=O [[Glu19]ShK] | 0.215 nM |  | 
9 | CC[C@H](C)[C@@H]1NC(=O)[C@@H](NC(=O)[C@H](CO)NC(=O)[C@@H](N)CCCNC(=N)N)CSSC[C@@H](C(=O)O)NC(=O)[C@H]([C@@H](C)O)NC(=O)[C@H](CCCCN)NC(=O)[C@@H]2CSSC[C@@H]3NC(=O)[C@H](CCC(N)=O)NC(=O)[C@H](Cc4ccccc4)NC(=O)[C@H](C)NC(=O)[C@H]([C@@H](C)O)NC(=O)[C@H](CSSC[C@H](NC(=O)[C@H](Cc4ccccc4)NC(=O)[C@H](CO)NC(=O)[C@H](CC(C)C)NC(=O)[C@H](CCCNC(=N)N)NC(=O)[C@H](Cc4ccc(O)cc4)NC(=O)[C@H](CCCCN)NC(=O)[C@H](CCSC)NC(=O)[C@H](CO)NC(=O)[C@H](Cc4c[nH]cn4)NC(=O)[C@H](CCCCN)NC3=O)C(=O)N[C@@H](CCCNC(=N)N)C(=O)N[C@@H](CCCCN)C(=O)N[C@@H]([C@@H](C)O)C(=O)N2)NC(=O)[C@H](CCCNC(=N)N)NC(=O)[C@H](CO)NC(=O)[C@H](CCCCN)NC(=O)[C@@H]2CCCN2C(=O)[C@H]([C@@H](C)CC)NC(=O)[C@H]([C@@H](C)O)NC(=O)[C@H](CC(=O)O)NC1=O [[Lys33]ShK] |  | 0.317 nM | 
10 | CC[C@H](C)[C@@H]1NC(=O)[C@@H](NC(=O)[C@H](CO)NC(=O)[C@@H](N)CCCNC(=N)N)CSSC[C@@H](C(=O)O)NC(=O)[C@H]([C@@H](C)O)NC(=O)CNC(=O)[C@@H]2CSSC[C@@H]3NC(=O)[C@H](CCC(N)=O)NC(=O)[C@H](Cc4ccccc4)NC(=O)[C@H](C)NC(=O)[C@H]([C@@H](C)O)NC(=O)[C@H](CSSC[C@H](NC(=O)[C@H](Cc4ccccc4)NC(=O)[C@H](CO)NC(=O)[C@H](CC(C)C)NC(=O)[C@H](CCCNC(=N)N)NC(=O)[C@H](CCC(=O)O)NC(=O)[C@H](CCCCN)NC(=O)[C@H](CCSC)NC(=O)[C@H](CO)NC(=O)[C@H](Cc4c[nH]cn4)NC(=O)[C@H](CCCCN)NC3=O)C(=O)N[C@@H](CCCNC(=N)N)C(=O)N[C@@H](CCCCN)C(=O)N[C@@H]([C@@H](C)O)C(=O)N2)NC(=O)[C@H](CCCNC(=N)N)NC(=O)[C@H](CO)NC(=O)[C@H](CCCCN)NC(=O)[C@@H]2CCCN2C(=O)[C@H]([C@@H](C)CC)NC(=O)[C@H]([C@@H](C)O)NC(=O)[C@H](CC(=O)O)NC1=O [[Glu23]ShK] | 100 nM |  | 
